Measurements published in patent US10078082B2, “Detection of free and protein-bound non-human gal-alpha(1-3)-gal epitope” (National University of Ireland, Galway, priority 2012, dated 2018).

Tests used:
Assay in all cases: Competitive ELISA specificity study: inhibition of scFv binding to Gal-α-(1→3)-Gal-BSA by free sugars
Design in all cases: species or system chicken
Details in all cases: highest concentration 1 mg/mL
scFv G12 = system: scFv G12
Experimental: (§1) Each scFv was evaluated in a competitive ELISA format using free Gal-α-(1,3)-Gal as standard. Microtitre plate wells were coated and blocked as previously described. Standard solutions were prepared in PBS (pH 7.2), ranging in concentration from 2 μg/ml (5.84 μM) to 20 mg/ml (58.4 mM). For the assay, 50 μl of each standard and buffer blank were added to designated wells in triplicate, followed by 50 μl of a sub-saturating concentration (1 μg/ml) of the appropriate scFv, giving a final standard concentration in the assay of 1 μg/ml (2.92 μM) to 10 mg/ml (29.2 mM). The plate was incubated for 1 hour at 37° C. with shaking After washing, bound scFv was detected as previously described. The ratios of the OD for each standard versus the OD given by the blank (B/Bo) were plotted versus standard concentration and standard curve plotted using SigmaPlot (v11, Systat Software Inc). The detection limits were determined as the concentration corresponding to the mean response for zero standard minus three times the standard deviation (SD). Inhibition of scFv by a panel of free sugars. scFv binding to Gal-α-(1→3)-Gal-BSA was determined against a panel of 21 free form sugars; D-Cellibiose, Melibiose, D-Raffinose, Lactulose, Palatinose, β-Gentibiose, D+ Trehalose, D+ Turanose, L− Fructose, D+ Glucose, Sucrose, Galacto-N-biose, 4β-Galactobiose, gal-α(1-3)-gal-β-(1-4)-gal, gal-α(1-3)-gal-β-(1-4)-glc, gal-α(1-3)-gal-β-(1-4)-gal-all-3)-gal, Laminarbiose, β1-4-D-Xylobiose, N-Acetyl-D-glucoseamine (GlcNAc), Galactose, N-Acetyl-D-lactosamine (LacNAc), (sourced from Sigma Aldrich and Dextra, UK). Inhibitions were performed by serial dilutions of free sugars and a sub-saturating concentration scFv added to each dilution and pre-incubated for 60 minutes at 37° C., prior to performing ELISA against Gal-α-(1→3)-Gal-BSA as used throughout. The percent binding of the scFv was plotted against the […], and the 50% effective dose determined (ED50; dose of free sugar causing 50% displacement of the scFv).

scFv A4 = system: scFv A4
Experimental: as §1

scFv A11 = system: scFv A11
Experimental: as §1

| % Maximum inhibition at Max Conc G12 (scFv G12) [%] | % Maximum inhibition at Max Conc A4 (scFv A4) [%] | % Maximum inhibition at Max Conc A11 (scFv A11) [%] | Compound |
| --- | --- | --- | --- |
| 73.54 | 73.48 | 78.41 | OC[C@H]1O[C@H](O[C@H]2[C@@H](O)[C@@H](CO)O[C@@H](O[C@@H]3[C@H](O)[C@@H](O)[C@@H](O[C@H]4[C@@H](O)[C@@H](CO)OC(O)[C@@H]4O)O[C@@H]3CO)[C@@H]2O)[C@H](O)[C@@H](O)[C@H]1O (stereo partly drawn) [gal-α(1,3)-gal-β-(1,4)-gal-α-(1,3)-gal] |
| 83.03 | 66.20 | 73.88 | OC[C@H]1O[C@H](O[C@H]2[C@@H](O)[C@@H](CO)O[C@@H](O[C@H]3[C@H](O)[C@@H](O)C(O)O[C@@H]3CO)[C@@H]2O)[C@H](O)[C@@H](O)[C@H]1O (stereo partly drawn) [gal-α(1,3)-gal-β-(1,4)-glc] |
| 64.43 | 68.18 | 76.83 | OCC1OC(OC2C(O)C(CO)OC(OC3C(CO)OC(O)C(O)C3O)C2O)C(O)C(O)C1O (stereo not drawn) [gal-α-(1,3)-gal-β-(1,4)-gal] |
| 33.93 | 36.4 | 51.06 | gal-α(1,3)-gal-BSA [gal-α(1,3)-gal-BSA (NGC)] |
